Results taken from article PMC11059095.

Assay: Brønsted acid catalysed 8-endo cationic carbocyclisation of biphenyl-embedded enynes (C-C bond between tertiary carbocation from protonated alkene and distal alkyne carbon); TfOH 10 mol%, vinyl cation trapped by H2O (1.1 equiv) or internal nucleophile
Conditions: the molecule shown is the open-chain precursor; 8-membered ring; 1,2-dichloroethane; 50.0 mM; 60.0 °C

SMILES	ring closure, isolated yield [%]
CC(C)=Cc1ccccc1-c1ccccc1C#CCCO [1u -> 6u]	31
COc1cccc(CC#Cc2ccccc2-c2ccccc2C=C(C)C)c1 [1v -> 6v]	29

Same assay, conditions: the molecule shown is the open-chain precursor; 8-membered ring; 1,2-dichloroethane; 50.0 mM; 60.0 °C; 2.0 h

SMILES	ring closure, isolated yield [%]
CC#Cc1ccccc1-c1ccc(OC)cc1C=C(C)C [1r -> 3r]	82
CC#Cc1cc(Cl)ccc1-c1ccccc1C=C(C)C [1q -> 3q]	95
CC#Cc1ccccc1-c1cc(Cl)ccc1C=C(C)C [1p -> 3p]	99
CC#Cc1ccccc1-c1ccccc1C=C(C)C [1b -> 3b]	99
CC#Cc1cc(OC)ccc1-c1ccccc1C=C(C)C [1s -> 3s]	70
CC#Cc1cc(OC)c(C)c(OC)c1-c1cc(Cl)ccc1C=C(C)C [1t -> 3t]	45
